How the values were obtained:
HIV-1NL4-3 [1] = test: Sensitivity to RT inhibitors, TZM luciferase infection assay; type: cell-based; settings: TZM-bl indicator cells, FIG. 5A,B
SIVMAC239 [2] = test: as above; type: cell-based, simian immunodeficiency virus; settings: TZM-bl indicator cells, FIG. 5A,B
stHIV/KB9 [3] = test: as above; type: cell-based, simian-tropic HIV-1; settings: TZM-bl indicator cells, FIG. 5A,B
HIV-1NL4-3 [4] = test: Protease inhibitor virus inhibition assay (infected HUT-R5 cells, readout on TZM-bl); type: cell-based; settings: infected HuT-CCR5 cells, FIG. 5C
SIVMAC239 [5] = test: as above; type: cell-based, simian immunodeficiency virus; settings: infected HuT-CCR5 cells, FIG. 5C
stHIV/KB9 [6] = test: as above; type: cell-based, simian-tropic HIV-1; settings: infected HuT-CCR5 cells, FIG. 5C
[7] = biological target: rhesus macaque APOBEC3G (rhesus macaque); test: cell-based or functional assay
[8] = biological target: HIV-1 capsid (CA) protein of the HIV-1NL4-3-based viruses (HIV/KB9/GFP, HIV(SVif)/KB9/GFP) (HIV-1 (NL4-3)) (UniProt P12493); test: cell-based or functional assay

Sequence of rhesus macaque APOBEC3G (rhesus macaque) (Q7YR24 whole entry): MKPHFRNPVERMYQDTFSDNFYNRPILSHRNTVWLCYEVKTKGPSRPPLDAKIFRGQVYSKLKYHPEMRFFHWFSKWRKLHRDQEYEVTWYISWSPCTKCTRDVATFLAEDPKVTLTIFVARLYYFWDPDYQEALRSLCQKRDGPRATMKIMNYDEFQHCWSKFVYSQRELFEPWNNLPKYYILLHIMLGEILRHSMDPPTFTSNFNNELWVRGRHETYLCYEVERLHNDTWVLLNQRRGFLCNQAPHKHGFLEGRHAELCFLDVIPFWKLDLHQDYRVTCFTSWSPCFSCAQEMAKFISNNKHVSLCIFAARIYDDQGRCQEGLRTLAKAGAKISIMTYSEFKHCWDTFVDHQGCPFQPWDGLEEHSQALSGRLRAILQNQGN

Cc1cn([C@H]2C[C@H](N=[N+]=[N-])[C@@H](CO)O2)c(=O)[nH]c1=O [AZT]
inhibition of infection (luciferase, percentage of uninhibited level), result in words (HIV-1NL4-3 [1]): equally sensitive | inhibition of infection (luciferase, percentage of uninhibited level), result in words (SIVMAC239 [2]): equally sensitive | inhibition of infection (luciferase, percentage of uninhibited level), result in words (stHIV/KB9 [3]): equally sensitive

CC(C)CN(C[C@@H](O)[C@H](Cc1ccccc1)NC(=O)O[C@H]1CCOC1)S(=O)(=O)c1ccc(N)cc1 [amprenavir]
inhibition of infectious virus generation, result in words (HIV-1NL4-3 [4]): effective inhibitors | inhibition of infectious virus generation, result in words (SIVMAC239 [5]): ineffective or poorly inhibitory | inhibition of infectious virus generation, result in words (stHIV/KB9 [6]): potently inhibited

Cc1ccnc2c1NC(=O)c1cccnc1N2C1CC1 [nevirapine]
inhibition of infection (luciferase, percentage of uninhibited level), result in words (HIV-1NL4-3 [1]): effective inhibitors | inhibition of infection (luciferase, percentage of uninhibited level), result in words (SIVMAC239 [2]): ineffective or poorly inhibitory | inhibition of infection (luciferase, percentage of uninhibited level), result in words (stHIV/KB9 [3]): potently inhibited

SIVMAC Vif protein (SIVMAC239) as expressed by HIV(SVif)/KB9/GFP and B3HIV(SCA,SVif)/KB9/GFP
fold decrease in single-cycle infectivity on CEMx174 cells of virus made in 293T cells with or without rhAPOBEC3G [7]: < 2 fold

HIV-1 Vif protein of the HIV-1NL4-3-based viruses (HIV/KB9/GFP, B3HIV(SCA)/KB9/GFP) (from UniProt P12504 1-192)
single-cycle infectivity on CEMx174 cells of virus made in 293T cells with or without rhAPOBEC3G [7]: 30 fold

rhesus macaque TRIM5α (from UniProt Q0PF16 1-497)
single-cycle infectivity (GFP-positive cells) in CEMx174 cells expressing rhTRIM5α against unmodified CEMx174 cells [8]: 30 fold | single-cycle infectivity (GFP-positive cells) in rhesus macaque 221 cells against unmodified CEMx174 cells [8]: 70 fold

From patent US20090170067A1, “Simian tropic, recombinant human immunodeficiency-1 viruses” (The Rockefeller University, priority 2006, published 2009)
